In US8642656B2, “Calixarene-based peptide conformation mimetics, methods of use, and methods of making” (priority 2004, dated 2014):
Entries after “also recorded” stand apart in the source; their conditions may differ. Read-outs that look alike come from different tables or passages of the source.

Legend:
fibroblasts = test: Proliferation of fibroblasts (general cell toxicity check); assay type: cell-based
[1] = Toxicity assays in tumor-bearing mice: behavior, body weight, organ morphology; assay type: in vivo; details: for signs of toxicity (behavior, weight gain, hematocrit), in words: all in vivo tumor experiments
Procedure: (§1) As an indirect measurement of general toxicity, body weights of mice were monitored twice weekly, using a digital balance (Ohaus Florham, N.J.). To determine hematocrit levels, blood samples were extracted by tail vein bleedings one day after terminating treatment, and blood was collected in heparinized micro-hematocrit capillary lubes (Fisher Pittsburgh, Pa.). Samples were spun down for 10 minutes in a micro-hematocrit centrifuge (Clay-Adams; NY), and the amount of hematocrit was determined using an international microcapillary reader (IEC; Needham, Mass.).

endothelial cell (EC) = test: EC Proliferation Assay, [3H]thymidine incorporation (Example 36, Table 1); assay type: cell-based; details: Table 1 and FIG. 3
Procedure: Human umbilical vein derived EC(HUVEC) were harvested from normal human umbilical cords by perfusion with 0.125% trypsin/EDTA as described in Groenewegen et al., J. Exp. Med. 164, 131-143 (1986). For determination of quiescent EC phenotype isolated ECs were immediately fixed in 1% paraformaldehyde. Human microvascular ECs (MVECs) were isolated. ECs were cultured in fibronectin coated tissue culture flasks in culture medium (RPMJ-1640 with 20% human serum (HS), supplemented with 2 mM glutamine and 100 U/ml penicillin and 0.1 mg/ml streptomycin).
EC proliferation was measured using a [^3H]thymidine incorporation assay. ECs were seeded at 5000 cells/well in flatbottomed tissue culture plates and grown for 3 days, in the absence or presence of regulators, in culture medium. During the last 6 hours of the assay, the culture was pulsed with 0.5μ Ci [methyl-^3H]thymidine/well.

[2] = tested on: LPS from E. coli serotype 055:B5; test: LPS neutralization assay (Limulus amoebocyte lysate, QCL-1000); assay type: biochemical
How it was run: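 Absorbance at 405-410 nm tracks pNA released from a synthetic substrate by LPS-activated lysate enzyme. Compounds were titrated against 0.04 units of each LPS. IC50 values derive from sigmoidal curve fitting.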

[3] = tested on: LPS from E. coli serotype 0111:B4; test: as above; assay type: biochemical; details: read-out: IC50 values (μM) for LPS binding, E. coli 0111:B4
How it was run: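 Compounds were tested for inhibition of LPS-triggered activation of the Limulus amoebocyte lysate proenzyme, which cleaves a chromogenic substrate to release p-nitroaniline read at 405-410 nm. Each LPS was used at 0.04 units. IC50 came from sigmoidal dose-response fits.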

[4] = Hematocrit levels, first (MA148) study; assay type: in vivo, mice; details: last day of treatment, vehicle 47±5.7
Procedure: as §1

[5] = Table 3, errors estimated ±30%, read-out: IC50 values (μM) for LPS binding, E. coli 055:B5

## 5,11,17,23-Tetra-tert-butyl-25,27-bis(2-guanidinoethoxy)-26,28-dihydroxy calix[4]arene trifluoroacetic acid salt [Compound 27]
fibroblasts; read-out: concentration giving 50% growth inhibition, fibroblasts
  IC50: ~20 µM
[1]; B16 model, i.p. administration
  drop of body weights during treatment: about 5%
[1]
  signs of toxicity (behavior, weight gain, hematocrit), in words: did not generally show signs of toxicity
Endothelial cell (EC); trifluoroacetic acid salt
  antiangiogenic activity (in words): excellent antiangiogenic activity; also recorded: exceptional antiangiogenic activity
[2]; [5]
  IC50: > 5 µM
[3]; Table 3, errors estimated ±30%
  IC50: > 5 µM
[4]; 2.7 mg/kg
  Hematocrit levels ±SD: 46.5±0.7 percentage of red blood cells
[4]; 10 mg/kg
  Hematocrit levels ±SD: 47±4.2 percentage of red blood cells

## CN(C)CCNC(=O)COc1c2cccc1Cc1cccc(c1OCC(=O)NCCN(C)C)Cc1cccc(c1OCC(=O)NCCN(C)C)Cc1cccc(c1OCC(=O)NCCN(C)C)C2 [Compound 40]
fibroblasts
  concentration giving 50% growth inhibition, fibroblasts: no delectable effects
[1]
  signs of toxicity (behavior, weight gain, hematocrit), in words: did not generally show signs of toxicity
Endothelial cell (EC)
  antiangiogenic activity (in words): exceptional antiangiogenic activity
Endothelial cell (EC); listed as KM0118 (40)
  antiangiogenic activity (in words): excellent antiangiogenic activity
[2]; Table 2, read-out: IC50 values (μM) for LPS binding, E. coli 055:B4
  IC50: 3.4 µM
[2]; [5]
  IC50: 3.4 µM
[3]; Table 2
  IC50: > 5 µM
[3]; Table 3, errors estimated ±30%
  IC50: > 5 µM
[4]; 2.4 mg/kg
  Hematocrit levels ±SD: 50±1.4 percentage of red blood cells
[4]; 10 mg/kg
  Hematocrit levels ±SD: 49.5±2.1 percentage of red blood cells
